This note sets out measurements from PMC10290137, “Systems-level analyses of protein-protein interaction network dysfunctions via epichaperomics identify cancer-specific mechanisms of stress adaptation” (Nature Communications, 2023).

Experiment [1] deals with T1, HSC70.
T1 construct: gene HSPA8; endogenous epiHSP70 epichaperome assemblies in human cancer cells (probably MDA-MB-468); HSC70/HSP70 pool, no recombinant construct
In words: CETSA in MDA-MB-468 cells and homogenates; the value is the IC50 for epiHSP70s disruption in cancer cells. The class given is cell-based.

The test system of experiment [2] is T1, HSC70. The experiment is described as above. The format is cell-based. The source says: CETSA in MDA-MB-468 cells and homogenates; the value is the IC50 for epiHSP70s disruption in cancer cells (b12) on HSC70 | three evaluated YKs—YK5, YK198 and LSI137—we observed in CETSA, performed both in cells and cell homogenates, a significant thermal stabilization
This is another data set of the same source.

Experiment [3] concerns the target T2, HSC70 (Homo sapiens, UniProt P11142).
T2 construct: gene HSPA8
In words: reconstituted purified HSC70: fluorescence anisotropy peptide release ([…] YK198) and stopped-flow MABA-ATP binding ([…]); also CETSA. The class given is biochemical. In general terms: Fluorescence polarisation rises when a labelled molecule tumbles more slowly, as on binding a larger partner.

Read-outs that look alike come from different tables or passages of the source.

T2 sequence (P11142 2-646): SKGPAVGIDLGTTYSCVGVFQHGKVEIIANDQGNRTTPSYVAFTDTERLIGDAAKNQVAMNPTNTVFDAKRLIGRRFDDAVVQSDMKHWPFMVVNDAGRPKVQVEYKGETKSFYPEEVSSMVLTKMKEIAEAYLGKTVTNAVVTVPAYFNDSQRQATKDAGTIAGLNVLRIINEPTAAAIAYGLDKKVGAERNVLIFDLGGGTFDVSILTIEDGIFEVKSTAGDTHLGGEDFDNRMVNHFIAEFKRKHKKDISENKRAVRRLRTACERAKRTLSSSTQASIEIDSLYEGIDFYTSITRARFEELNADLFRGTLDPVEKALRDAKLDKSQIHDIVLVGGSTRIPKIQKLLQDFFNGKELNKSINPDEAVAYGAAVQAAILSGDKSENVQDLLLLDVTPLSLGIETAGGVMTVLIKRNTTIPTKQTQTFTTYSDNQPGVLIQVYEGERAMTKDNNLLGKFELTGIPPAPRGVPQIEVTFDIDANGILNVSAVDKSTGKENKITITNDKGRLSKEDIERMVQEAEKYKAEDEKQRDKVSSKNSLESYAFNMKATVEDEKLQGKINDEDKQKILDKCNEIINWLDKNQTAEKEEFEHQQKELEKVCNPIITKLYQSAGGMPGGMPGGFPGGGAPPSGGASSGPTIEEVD

Regarding `COc1cccc(COc2nc(N3CCC(N(C)C)C3)ncc2Sc2ccc(N)nc2)c1` (stereo not drawn) [LSI137], inhibition in experiment [1] was half-maximal at 0.06 µM (IC50).
Consider `C=CC(=O)Nc1cc(N)nc(Sc2c(OC)nc(N3CCN(C)CC3)nc2OC)n1` [YK5], for which, in experiment [2], inhibition was half-maximal at 5 µM (IC50).
Take `CN1CCN(c2ncc(Sc3ccc(N)nc3)c(OCc3ccccc3)n2)CC1` [YK198]: the “reconstituted purified HSC70: fluorescence anisotropy peptide release (100 uM YK)” value in experiment [3] is reported as “biochemical effect of YKs on HSP70s manifests majorly at the allosteric release of the interactor protein, impairing its release”.
